From patent publication US20020022826A1, “Burst electrode” (priority 2000, published 2002)

Settings: bare metal electrodes, nitrogen atmosphere
Source text: Using stainless steel electrodes in aqueous NaPSS electrolyte, conditions were developed for the reproducible synthesis, loading, and release of bioactive cations from PPy/PSS films. After PPy/PSS film preparation, the polymer-modified electrodes were removed from the electrolyte, washed with water, and their redox properties studied by cyclic voltammetry (CV).

- potential at which dopamine oxidizes: +0.6 V vs. Ag/AgCl
SMILES: NCCc1ccc(O)c(O)c1 [Dopamine, dopamine]
